How the values were obtained:
[1] = target: T1, Rat Kidney Medullary V2 Receptors (vasopressin V2) (Rattus norvegicus, UniProt Q00788); experiment: Binding Assay to Rat Kidney Medullary V2 Receptors; details: rat kidney medullary V2, [3H]Arg8-vasopressin
T1 construct: Medullary tissues from rat kidneys are dissected out; from tissue; host or cells: rat kidney medulla membranes
Protocol: Binding Assay to Rat Kidney Medullary V2 Receptors
Medullary tissues from rat kidneys are dissected out, cut into small pieces and let soak in a […] sodium chloride solution containing 1.0 mM EDTA with many changes of the liquid phase, until the solution is clear of blood. The tissue is homogenized in a 0.25M sucrose solution containing 1.0 mM EDTA and 0.1 mM PMSF using a Potter-Elvehjem homogenizer with a teflon pestle. The homogenate is filtered through several layers (4 layers) of cheese cloth. The filtrate is rehomogenized using a dounce homogenizer, with a tight fitting pestle. The final homogenate is contrifuged at 1500×g for 15 min. The nuclear pellet is discarded and the supernatant fluid recentrifuged at 40,000×g for 30 min. The resulting pellet formed contains a dark inner part with the exterior, slightly pink. The pink outer part is suspended in a small amount of 50.0 mMTris.HCl buffer, pH 7.4. The protein content is determined by the Lowry's method (Lowry et al, J. Biol. Chem., 1953). The membrane suspension is stored at -70° C., in 50.0 mMTris.HCl, containing 0.2% inactivated BSA and 0.1 mM PMSF in aliquots of 1.0 ml containing 10.0 mg protein per ml of suspension until use in subsequent binding experiments.
For binding experiments, the following is added in μl volume to wells of a 96 well format of a microtiter plate: 100.0 μl of 100.0 mM Tris.HCl buffer containing 0.2% heat inactivated BSA, 10.0 mM MgCl2 and a mixture of protease inhibitors: leupeptin, 1.0 mg %; aprotinin, 1.0 mg %; 1,10-phenanthroline, 2.0 mg %; trypsin inhibitor, 10.0 mg % and 0.1 mM PMSF, 20.0 μl of [^3 H]Arginine^8, vasopressin (S.A. 75.0 Ci/mmole) at 0.8 nM and the reaction initiated by the addition of 80.0 μl of tissue membranes (200.0 μg tissue protein). The plates are left undisturbed on the bench top for 120 min. to reach equilibrium. Non-specific binding is assessed in the presence of 1.0 μM of unlabeled ligand, added in 20 μl volume. For test compounds, these are solubilized in 50% dimethylsulfoxide (DMSO) and added in 20.0 μl volume to a final incubation volume of 200 μl. Upon completion of binding, the content of each well is filtered off, using a Brandel® cell Harvester (Gaithersburg, Md.). The radioactivity trapped on the filter disk by the ligand-receptor complex is assessed by liquid scintillation counting in a Packard LS Counter, with an efficiency of 65% for tritium. The data are analyzed for IC50 values by the LUNDON-2 program for competition (LUNDON SOFTWARE, OH).

Vasopressin V1 = Vasopressin V1 Antagonist Activity in Conscious Rats (vasopressin vasopressor response); type: in vivo, rat
Protocol: Vasopressin V1 Antagonist Activity in Conscious Rats Conscious rats are restrained in a supine position with elastic tape. The area at the base of the tail is locally anesthetization by subcutaneous infiltration with 2% procaine (0.2 ml). Using aseptic technique the ventral caudal tail artery is isolated and a cannula made of PE 10 and 20 (heat-fused) tubing is passed into the lower abdominal aorta. The cannula is secured, heparinized (1000 i.u./cc), sealed and the would closed with one or two stitches of Dexon 4-0. The caudal vein is also cannulated in the same manner for intravenous drug administration. The duration of the surgery is approximately 5 minutes. Additional local anesthesia (2% procaine or lidocaine) is provided as needed. The animals are placed in plastic restraining cages in an upright position. The cannula is attached to a […] pressure transducer and pulsatile blood pressure is recorded. […] Percentage of antagonism by the compound is calculated using the pre-drug vasopressin vasopressor response as 100%.

[2] = target: T2, Rat Hepatic V1 Receptors (vasopressin V1) (Rattus norvegicus, UniProt P30560); experiment: Binding Assay to Rat Hepatic V1 Receptors; details: rat hepatic V1, [3H]vasopressin
T2 construct: Rat liver plasma membranes expressing the vasopressin V1 receptor subtypes are isolated by sucrose density gradient; from tissue; host or cells: rat liver plasma membranes
T2 sequence (P30560 whole entry): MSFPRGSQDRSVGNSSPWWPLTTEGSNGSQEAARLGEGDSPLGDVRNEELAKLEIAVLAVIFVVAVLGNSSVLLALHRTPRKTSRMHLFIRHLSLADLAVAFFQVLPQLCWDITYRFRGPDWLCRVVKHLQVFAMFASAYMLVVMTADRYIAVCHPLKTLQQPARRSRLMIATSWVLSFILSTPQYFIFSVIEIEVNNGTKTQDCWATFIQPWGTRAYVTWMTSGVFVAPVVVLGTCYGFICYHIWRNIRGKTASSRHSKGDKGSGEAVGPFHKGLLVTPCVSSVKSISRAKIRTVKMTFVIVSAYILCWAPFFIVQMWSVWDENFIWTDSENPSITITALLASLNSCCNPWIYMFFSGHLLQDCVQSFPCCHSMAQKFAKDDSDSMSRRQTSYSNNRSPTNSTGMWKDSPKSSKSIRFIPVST
Protocol: Binding Assay to Rat Hepatic V1 Receptors
Rat liver plasma membranes expressing the vasopressin V1 receptor subtypes are isolated by sucrose density gradient according to the method described by Lesko et al., (1973). These membranes are quickly suspended in 50.0 mMTris.HCl buffer, pH 7.4, containing 0.2% bovine serum albumin (BSA) and 0.1 mM phenylmethylsulfonylfluoride (PMSF) and kept frozen at -70° C. until used in subsequent binding experiments. For binding experiments, the following is added to the wells of a ninety-six well format microtiter plate: 100 μl of 100.0 mM Tris.HCl buffer containing 10.0 mM MgCl2, 0.2% heat inactivated BSA and a mixture of protease inhibitors: leupeptin, 1.0 mg %; aprotinin, 1.0 mg %, 1,10-phenanthroline,2.0 mg %; trypsin inhibitor, 10.0 mg % and 0.1 mM PMSF, 20.0 μl of [phenylalanyl-3,4,5-^3 H]vasopressin (S.A. 45.1 Ci/mmole) at 0.8 nM, and the reaction initiated by the addition of 80 μl of tissue membranes containing 20 μg of tissue protein. The plates are kept undisturbed on the bench top at room temperature for 120 min. to reach equilibrium. Nonspecific samples are assayed in the presence of 0.1 μM of the unlabeled antagonist phenylalanylvasopressin, added in 20.0 μl volume to a final incubation volume of 200 μl. Upon completion of binding, the content of each well is filtered off, using a Brandel® cell Harvester (Gaithersburg, Md.). The radioactivity trapped on the filter disk by the ligand-receptor complex is assessed by liquid scintillation counting in a Packard LS Counter, with an efficiency of 65% for tritium. The data are analyzed for IC50 values by the LUNDON-2 program for competition (LUNDON SOFTWARE, OH).

Vasopressin V2 = Vasopressin V2 Antagonist Activity in Conscious Hydrated Rats; type: in vivo, rat; details: AVP 0.4 μg/kg i.p.
Protocol: Vasopressin V2 Antagonist Activity in conscious Hydrated Rats Conscious hydrated rats are treated with compounds under study from 0.1 to 100 mg/kg orally or vehicle. Two to four rats are used for each compound. One hour later, arginine vasopressin (AVP, antidiuretic hormone, ADH) dissolved in peanut oil is administered at 0.4 μg/kg intraperitoneally. Two rats in each test would not receive arginine vasopressin but only the vehicle (peanut oil) to serve as water-loading control. Twenty minutes later each rat is given 30 mL/kg of deionized water orally by gavage and is placed individually in a metabolic cage equipped with a funnel and a graduated glass cylinder to collect urine for four hours. Urine volume is measured and osmolality analyzed by use of a Fiske One-Ten osmometer (Fiske Assoc., Norwood, Mass. USA). Urinary sodium, potassium, and chloride are analyzed by use of ion-specific electrodes in a Beckman E3 (Electrolyte 3) Analyzer. In the following results, […] and […] osmolality relative to AVP-control indicates activity.

oxytocin receptors = target: T3, oxytocin receptors (Rattus norvegicus, UniProt P70536); experiment: Oxytocin Receptor Binding; set-up: species or system Sprague-Dawley rats; details: for IC50: 1.0 nM [3H]oxytocin
T3 construct: The uteri are dissected out, cleaned of fat and connective tissues; from tissue; host or cells: uterus membranes of DES-treated female Sprague-Dawley rats
T3 sequence (P70536 1-388): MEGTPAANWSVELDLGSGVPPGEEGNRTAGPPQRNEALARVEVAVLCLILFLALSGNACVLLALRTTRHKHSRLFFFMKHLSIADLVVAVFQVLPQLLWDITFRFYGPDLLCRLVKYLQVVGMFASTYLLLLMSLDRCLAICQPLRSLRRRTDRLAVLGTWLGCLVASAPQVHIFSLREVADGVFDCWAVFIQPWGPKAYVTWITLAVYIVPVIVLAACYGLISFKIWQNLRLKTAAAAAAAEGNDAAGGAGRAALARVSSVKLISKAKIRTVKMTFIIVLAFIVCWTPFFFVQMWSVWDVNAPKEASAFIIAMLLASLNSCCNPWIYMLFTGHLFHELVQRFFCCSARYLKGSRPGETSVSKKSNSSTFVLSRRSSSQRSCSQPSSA
Protocol: Oxytocin Receptor Binding
Female Sprague-Dawley rats weighing approximately 200-250 g are injected intramuscularly (i.m.) with 0.3 mg/kg of body weight of diethylstilbestrol (DES). The rats are sacrificed 18 hours later under pentobarbital anesthesia. The uteri are dissected out, cleaned of fat and connective tissues and rinsed in 50 ml of normal saline. The tissue pooled from six rats is homogenized in 50 ml of 0.01 mMTris.HCl, containing 0.5 mM dithiothreitol and 1.0 mM EDTA, adjusted to pH 7.4, using a polytron at setting 6 with three passes of 10 sec each. The homogenate is passed through two (2) layers of cheesecloth and the filtrate centrifuged at 1000×g for 10 min. The clear supernatant is removed and recentrifuged at 165,000×g for 30 min. The resulting pellet containing the oxytocin receptors is resuspended in 50.0 mM Tris.HCl containing 5.0 mM MgCl2 at pH 7.4, to give a protein concentration of 2.5 mg/ml of tissue suspension. This preparation is used in subsequent binding assays with [^3 H]Oxytocin.
Binding of 3,5-[^3 H]Oxytocin ([^3 H]OT) to its receptors is done in microtiter plates using [^3 H]OT, at various concentrations, in an assay buffer of 50.0 mM Tris.HCl, pH 7.4 and containing 5.0 mM MgCl2, and a mixture of protease inhibitors: BSA, 0.1 mg; aprotinin, 1.0 mg; 1,10-phenanthroline, 2.0 mg; […], 10.0 mg; and PMSF, 0.3 mg per 100 ml of buffer solution. Nonspecific binding is determined in the presence of 1.0 uM unlabeled OT. The binding reaction is terminated after 60 min., at 22° C., by rapid filtration through glass fiber filters using a Brandel® cell harvester (Biomedical Research and Development Laboratories, Inc., Gaithersburg, Md.). Competition experiments are conducted at equilibrium using 1.0 nM [^3 H]OT and varying the concentration of the displacing agents. The concentrations of agent displacing 50% of [^3 H]OT at its sites (IC50) are calculated by a computer assisted LUNDON-2 program (LUNDON SOFTWARE INC., Ohio, USA).

[3] = Rattus norvegicus, 10 mg/kg iv, read-out: Vasopressin vasopressor response, Max. % Inhibition

T1 sequence (Q00788 whole entry): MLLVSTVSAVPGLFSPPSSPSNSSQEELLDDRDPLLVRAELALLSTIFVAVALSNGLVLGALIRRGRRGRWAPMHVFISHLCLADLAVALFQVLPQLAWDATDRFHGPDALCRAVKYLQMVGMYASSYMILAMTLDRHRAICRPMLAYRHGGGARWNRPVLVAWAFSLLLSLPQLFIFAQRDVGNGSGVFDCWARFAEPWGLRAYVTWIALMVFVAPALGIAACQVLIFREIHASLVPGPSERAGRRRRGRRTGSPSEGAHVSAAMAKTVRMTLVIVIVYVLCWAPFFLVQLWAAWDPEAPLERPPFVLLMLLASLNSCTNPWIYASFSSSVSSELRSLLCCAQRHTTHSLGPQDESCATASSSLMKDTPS

Compound	IC50 [1]	Time (Min) of Max. % Inhibition (Vasopressin V1; 10 mg/kg iv)	inhibition in vivo at 10 mg/kg (Vasopressin V1; [3])	IC50 [2]	Osmolality (Vasopressin V2; 30 mg/kg P.O.)	Urine Volume (Vasopressin V2; 30 mg/kg P.O.)	IC50 (oxytocin receptors)	inhibition at 2.5 µM (oxytocin receptors; 2.5 μM)	Time (Min) of Max. % Inhibition (Vasopressin V1; 20 mg/kg iv)	inhibition in vivo at 20 mg/kg (Vasopressin V1; Rattus norvegicus, 20 mg/kg iv, read-out: Vasopressin vasopressor response, Max. % Inhibition)	inhibition at 10 µM (oxytocin receptors; 10 μM)	Urine Volume (Vasopressin V2; 10 mg/kg P.O.)
O=C(Cc1ccccc1Cl)Nc1ccc(C(=O)N2CCCCc3sc(Cl)cc32)cc1 [Example 99, N-[4-[(2-Chloro-5,6,7,8-tetrahydro-4H-thieno[3,2-b]azepin-4-yl)carbonyl]phenyl]-2-chlorobenzeneacetamide]	0.0033 µM	90 min	58%	0.02 µM	1135 mOsm/kg	10 ml/4 hours	–	–	–	–	–	–
O=C(Nc1ccc(C(=O)N2CCCCc3sccc32)cn1)c1ccccc1-c1ccccc1 [Example 252]	0.0061 µM	–	–	0.068 µM	–	–	0.17 µM	93%	–	–	–	–
O=C(Nc1ccc(C(=O)N2CCCCc3sccc32)cc1)c1ccc(Cl)cc1Cl [Example 14, N-[4-[(5,6,7,8-Tetrahydro-4H-thieno[3,2-b]azepin-4-yl)carbonyl]phenyl]2,4-dichlorobenzamide]	0.03 µM	–	–	0.12 µM	1432 mOsm/kg	3.5 ml/4 hours	–	–	120 min	61%	–	–
Cc1ccc(F)cc1C(=O)Nc1ccc(C(=O)N2CCCCc3sccc32)cn1 [Example 243, N-[5-[(5,6,7,8-tetrahydro-4H-thieno[3,2-b]azepin-4-yl)carbonyl]-2-pyridinyl]-5-fluoro-2-methylbenzamide]	0.0061 µM	–	–	0.068 µM	–	–	0.34 µM	–	–	–	96%	–
O=C(Cc1ccccc1Cl)Nc1ccc(C(=O)N2CCCCc3sccc32)cc1 [Example 2, N-[4-[(5,6,7,8-Tetrahydro-4H-thieno[3,2-b]azepin-4-yl)carbonyl]phenyl]-2-chlorobenzeneacetamide]	0.0026 µM	60 min	7.6%	0.0037 µM	–	–	–	–	–	–	–	2.8 ml/4 hours
O=C(Nc1ccc(C(=O)N2CCCCc3sccc32)cc1)C1CC=CCC1 (stereo not shown) [Example 15, N-[4-[(5,6,7,8-Tetrahydro-4H-thieno[3,2-b]azepin-4-yl)carbonyl]phenyl]3-cyclohexenecarboxamide]	0.055 µM	30 min	69%	0.065 µM	1397 mOsm/kg	4.6 ml/4 hours	–	–	–	–	–	–

— patent US5696112A, “Fused heterocyclic azepines as vasopressin antagonists” (American Cyanamid Company, priority 1995, dated 1997)
